In the NIST ThermoML archive (doi:10.1021/acs.jced.8b00181):

Legend:
[1] = refractive index (Na D-line) (dimensionless); details: 298 K; 101.33 kPa; Liquid; Standard Abbe refractometry
[2] = 298 K; 100 kPa; Liquid; Frequency=0.001 MHz; Alternating current cell with electrodes
[3] = mn = molality of the nth substance listed, in mol/kg; details: 298 K, 100 kPa, Liquid, Frequency=0.001 MHz, Alternating current cell with electrodes
[4] = refractive index (Na D-line) (dimensionless); mn = molality of the nth substance listed, in mol/kg; details: 298 K, 100 kPa, Liquid, Standard Abbe refractometry

CC(C)O [propan-2-ol]
Details	refractive index
[1]	1.3758

CCO [ethanol]
Details	refractive index
[1]	1.36

O [water]
Details	electrical conductivity [S/m]	refractive index
[1]	–	1.3327
[2]	0.000502	–

CCCCCCCCCCCCOS(=O)(=O)[O-].[Na+] [sodium dodecyl sulfate] + O
[3]
Details	electrical conductivity [S/m]
m1 = 0.00099	0.00957
m1 = 0.00198	0.0183
m1 = 0.00297	0.0271
m1 = 0.00396	0.0357
m1 = 0.00495	0.0443
m1 = 0.00594	0.0528
m1 = 0.00693	0.061
m1 = 0.00792	0.0684
m1 = 0.00891	0.074
m1 = 0.0099	0.0777
m1 = 0.01089	0.0813
m1 = 0.01188	0.0846
m1 = 0.01287	0.0878
m1 = 0.01386	0.09108

CCCO [propan-1-ol]
Details	refractive index
[1]	1.3834

CCO [ethanol] + O
Details	electrical conductivity, [3] [S/m]	refractive index, [4]
m1 = 0.9	0.000248	1.3362
m1 = 1.46	0.000259	1.3375
m1 = 2.69	0.000287	1.34
m1 = 4.09	0.000311	1.3431
m1 = 7.59	0.000251	1.3497
m1 = 9.51	0.000252	1.3521

CCCO [propan-1-ol] + O
Details	electrical conductivity, m1 = 0.87 [S/m]	electrical conductivity, m1 = 1.49 [S/m]	electrical conductivity, m1 = 2.76 [S/m]	electrical conductivity, m1 = 4.29 [S/m]	electrical conductivity, m1 = 6.77 [S/m]	refractive index, m1 = 0.87	refractive index, m1 = 1.49	refractive index, m1 = 2.76	refractive index, m1 = 4.29	refractive index, m1 = 6.77
[3]	0.000153	0.000145	0.000111	0.000117	0.000143	–	–	–	–	–
[4]	–	–	–	–	–	1.3381	1.3414	1.3465	1.3516	1.3572

CC(C)O [propan-2-ol] + O
Details	electrical conductivity, [3] [S/m]	refractive index, [4]
m1 = 0.85	0.000134	1.3374
m1 = 1.45	0.000141	1.3408
m1 = 2.84	8.2e-05	1.3467
m1 = 4.36	9.4e-05	1.3511
m1 = 8.72	5e-05	1.361
m1 = 13.08	4.7e-05	1.365
